Data: article PMC12668310, “High‐Throughput Synthesis and Screening of a Cyanimide Library Identifies Selective Inhibitors of ISG15‐Specific Protease mUSP18” (Angewandte Chemie (International Ed. in English), 2025)
Like-named read-outs stand apart in the source and are kept apart here.

Target: T1, mUSP18 (Mus musculus, UniProt Q9WTV6)
T1 construct: (46-368); His-tag (N); made in house
T1 sequence (Q9WTV6 46-368): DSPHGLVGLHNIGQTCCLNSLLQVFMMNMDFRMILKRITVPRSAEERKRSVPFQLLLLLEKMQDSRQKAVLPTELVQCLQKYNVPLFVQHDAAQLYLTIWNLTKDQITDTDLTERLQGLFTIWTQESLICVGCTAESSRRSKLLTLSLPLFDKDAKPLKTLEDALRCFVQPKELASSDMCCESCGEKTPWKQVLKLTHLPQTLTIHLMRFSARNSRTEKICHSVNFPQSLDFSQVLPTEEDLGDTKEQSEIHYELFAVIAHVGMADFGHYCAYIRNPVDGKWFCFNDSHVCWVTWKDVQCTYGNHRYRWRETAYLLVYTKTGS
Assay: High-throughput screening, ISG15ct-RhoMP, single dose 1.25 µM
Format: biochemical, murine

[1] = mUSP18 %inhibition, carboxylic acid (CA) building block alone, read-out: %inh CA only
[2] = mUSP18 %inhibition, carboxylic acid (CA) with coupling reagents DIC/HOBT, read-out: %inh CA + DIC/HOBT
[3] = mUSP18 %inhibition, carboxylic acid (CA) building block alone
[4] = mUSP18 %inhibition, carboxylic acid (CA) with coupling reagents DIC/HOBT

| Compound | inhibition at 1.25 µM [1] [%] | inhibition at 1.25 µM [2] [%] | further results |
| --- | --- | --- | --- |
| CSCCC(NC(C)=O)C(=O)O (stereo not shown) [CA001] | 4.64 | -9.16 |  |
| CC(=O)NCC(=O)O [CA002] | 0.89 | -10.9 |  |
| CC(C)CC(=O)O [CA003] | -0.18 | -12.3 |  |
| O=C(O)c1ccccc1I [CA004] | -4.47 | -12.2 |  |
| CC(C)C(=O)O [CA005] | -4.83 | -18 |  |
| Cc1cc(OCC(=O)O)ccc1C(C)C [CA006] | -6.56 | -10.7 |  |
| CCCC(=O)O [CA007] | -4.83 | -14.7 |  |
| CC(C)(C)OC(=O)Nc1ccccc1C(=O)O [CA009] | -1.43 | -19.3 |  |
| Cc1cncc(C(=O)O)c1 [CA010] | -2.59 | -11.3 |  |
| O=C(O)CCN1C(=O)C=CC1=O [CA011] | 7.63 | -2.16 |  |
| O=C(O)Cc1ccc([N+](=O)[O-])cc1 [CA012] | -3.85 | -8.78 |  |
| O=C(O)Cc1ccccc1[N+](=O)[O-] [CA013] | 7.76 | -7.61 |  |
| C#CCCC(=O)O [CA014] | -1.43 | -9.92 |  |
| O=C(O)c1cnccn1 [CA015] |  |  | %inh CA only [3]: -1.35%; %inh CA + DIC/HOBT [4]: -15.60% |
| O=C(O)c1ccc(/N=N/c2ccccc2)cc1 [CA016] | 3.44 | -5.83 |  |
| O=C(O)Cc1ccncc1 [CA017] | -7.18 | -13 |  |
| Cn1c(=O)c2c(ncn2CC(=O)O)n(C)c1=O [CA018] | -2.06 | -10.4 |  |
| O=C(O)CNC(=O)c1ccccc1 [CA019] | -4.39 | -8.67 |  |
| O=C(O)c1ccc(B(O)O)cc1 [CA020] | -7.88 | -9.11 |  |

| Compound | inhibition at 1.25 µM [1] [%] | inhibition at 1.25 µM [2] [%] | further results |
| --- | --- | --- | --- |
| CC(C)(C)OC(=O)NCC(=O)O [CA021] | -6.16 | -9.92 |  |
| CC(C)(C)OC(=O)N[C@@H](Cc1cn(-c2ccc([N+](=O)[O-])cc2[N+](=O)[O-])cn1)C(=O)O [CA022] | -4.55 | -8.26 |  |
| O=C(O)CCCCBr [CA023] | -5.49 | -14.3 |  |
| O=C(O)C(Br)c1ccccc1 (stereo not shown) [CA024] | -2.41 | -9.9 |  |
| O=C(O)CCCCCBr [CA025] | 7.25 | -8.17 |  |
| O=C(O)c1ccccc1CCc1ccccc1 [CA026] | 2.38 | -14.8 |  |
| O=C(O)c1ccc(CBr)cc1 [CA027] | 0.19 | -11.3 |  |
| Cc1cc(C(=O)O)ccc1Br [CA028] | -3.46 | -11 |  |
| C#CCCCC(=O)O [CA029] |  |  | inhibition at 1.25 µM (read-out: %inh CA + DIC/HOBT): -11.6%; inhibition at 1.25 µM (read-out: %inh CA only): -3.41% |
| O=C(O)c1nccc2ccccc12 [CA030] | -2.62 | -9.45 |  |
| Cc1c(Br)cccc1C(=O)O [CA031] | -3.59 | -10.1 |  |
| CC(=O)CCCCC(=O)O [CA032] | -5.09 | -11.3 |  |
| Cc1ccc(Br)c(C(=O)O)c1 [CA033] |  |  | %inh CA only [3]: -2.06%; %inh CA + DIC/HOBT [4]: -9.49% |
| O=C(O)c1sccc1Br [CA034] | -2.15 | -14 |  |
| O=C(NNc1ccc(C(=O)O)cc1)OCC1c2ccccc2-c2ccccc21 [CA035] | 9.05 | 23.4 |  |
| O=Cc1cn(CC(=O)O)c2ccccc12 [CA036] | -2.36 | -8.7 |  |
| O=Cc1ccc(C(=O)O)cc1 [CA037] | 9.56 | -5.24 |  |
| O=C(O)c1cccc2c1-c1ccccc1C2 [CA038] | 6.69 | -7.2 |  |
| O=Cc1ccc(O)c(C(=O)O)c1 [CA040] | 1.03 | -7.73 |  |
